Our source for the Activity values is ChEMBL document CHEMBL4480451, “Novel nonapeptide GLP (28-36) amide derivatives with improved hypoglycemic and body weight lowering effects” (2019).

Activity calls are given as the source filed them. No cut-off for these calls is given here.

The test system of assay [1] is Mus musculus. Kind of assay: Hypoglycemic activity in ICR mouse assessed as plasma glucose level at 1 umol/kg, ip pretreated 30 mins prior to glucose challenge and measured at 15 mins post challenge by intraperitoneal glucose tolerance test (reference value: 15.3 +/- 1.2 mmol/L). The class given is functional.
Assay [2] relates to Mus musculus. As to the kind of experiment: Hypoglycemic activity in ICR mouse assessed as reduction in plasma glucose AUC (0 to 120 mins) at 1 umol/kg, ip pretreated 30 mins prior to glucose challenge […] by intraperitoneal glucose tolerance test. The class given is functional, organism-based.
For assay [3], the system named is INS1. As to the kind of experiment: Cytoprotective activity against STZ-mediated cell death in rat INS-1 cells assessed as reduction in cell viability at 10 uM after 24 hrs by MTT assay (reference value: 50%). The class given is functional. Background: Formazan colour is commonly taken as a measure of viable cells.
The test system of assay [4] is Mus musculus. Kind of assay: Antiobesity activity in C57BL/6J mouse model of diet-induced obesity assessed as reduction in circulating adiponectin level at 1 umol/kg, ip qd for 4 weeks. It is filed as functional, organism-based.
The test system of assay [5] is Mus musculus. Kind of assay: Antidiabetic activity in STZ-induced diabetic ICR mouse model assessed as reduction in HbA1c level at 0.1 to 10 umol/kg, ip for 5 consecutive days. It is filed as functional, organism-based.
Assay [6] deals with Mus musculus. Kind of assay: Antiobesity activity in C57BL/6J mouse model of diet-induced obesity assessed as reduction in cumulative food intake at 1 umol/kg, ip qd for 4 weeks relative to control. The class given is functional. More on the design: scale not given: the % may be the effect or the level left.
The subject of assay [7] is Mus musculus. As to the kind of experiment: Antiobesity activity in C57BL/6J mouse model of diet-induced obesity assessed as increase in small brown adipocytes at 1 umol/kg, ip qd for 4 weeks by haematoxylin and eosin staining-based assay. It is filed as functional, organism-based.
Assay [8] has as its system Mus musculus. Kind of assay: Antidiabetic activity in STZ-induced diabetic ICR mouse model assessed as fasting blood glucose level at 1 umol/kg, ip for 5 consecutive days by glucometery (reference value: 17.7 +/- 1.1 mM). The class given is functional.
The subject of assay [9] is INS1. As to the kind of experiment: Cytoprotective activity against H2O2-induced oxidative stress-mediated cell death in rat INS-1 cells assessed as reduction in apoptotic cells at 0.1 to 10 uM after 24 hrs by Annexin V/propidium iodide staining-based flow cytometric analysis. It is filed as functional.
Assay [10] concerns Mus musculus. Kind of assay: Antiobesity activity in C57BL/6J mouse model of diet-induced obesity assessed as reduction in circulating leptin level at 1 umol/kg, ip qd for 4 weeks. It is filed as functional, organism-based.
For assay [11], the system named is Mus musculus. As to the kind of experiment: Antiobesity activity in C57BL/6J mouse model of diet-induced obesity assessed as reduction in triglyceride levels at 1 umol/kg, ip qd for 4 weeks. It is filed as functional, organism-based.
Assay [12] relates to Mus musculus. Kind of assay: Antiobesity activity in C57BL/6J mouse model of diet-induced obesity assessed as reduction in body weight at 1 umol/kg, ip qd for 4 weeks. It is filed as functional, organism-based.
The subject of assay [13] is Mus musculus. Kind of assay: Antiobesity activity in C57BL/6J mouse model of diet-induced obesity assessed as reduction in serum total cholesterol levels at 1 umol/kg, ip qd for 4 weeks. It is filed as functional, organism-based.
Assay [14] relates to Mus musculus. Kind of assay: Antiobesity activity in C57BL/6J mouse model of diet-induced obesity assessed as reduction in AST levels at 1 umol/kg, ip qd for 4 weeks. It is filed as functional, organism-based.
The test system of assay [15] is INS1. As to the kind of experiment: Cytoprotective activity against STZ-mediated cell death in rat INS-1 cells assessed as reduction in cell viability at 1 uM after 24 hrs by MTT assay (reference value: 50%). The class given is functional.
Assay [16] has as its system INS1. Kind of assay: Cytoprotective activity against glucolipotoxicity-mediated cell death in rat INS-1 cells assessed as reduction in cell viability at 10 uM after 24 hrs by MTT assay (reference value: 31%). The class given is functional.
In assay [17] the test system is INS1. Kind of assay: Cytoprotective activity against H2O2-induced oxidative stress-mediated cell death in rat INS-1 cells assessed as reduction in cell viability at 10 uM after 24 hrs by MTT assay (reference value: 37%). It is filed as functional.
The subject of assay [18] is INS1. Kind of assay: Cytoprotective activity against STZ-mediated cell death in rat INS-1 cells assessed as reduction in apoptotic cells at 0.1 to 10 uM after 24 hrs by Annexin V/propidium iodide staining-based flow cytometric analysis. The class given is functional. (In general: A flow cytometer gives signals particle by particle.)
The subject of assay [19] is Mus musculus. Kind of assay: Antiobesity activity in C57BL/6J mouse model of diet-induced obesity assessed as reduction in LDL/HDL levels at 1 umol/kg, ip qd for 4 weeks. The class given is functional, organism-based.
Assay [20] concerns Mus musculus. Kind of assay: Antidiabetic activity in STZ-induced diabetic ICR mouse model assessed as fasting blood glucose level at 10 umol/kg, ip for 5 consecutive days by glucometery (reference value: 17.7 +/- 1.1 mM). The class given is functional.
Assay [21] relates to INS1. As to the kind of experiment: Cytoprotective activity against glucolipotoxicity-mediated cell death in rat INS-1 cells assessed as reduction in apoptotic cells at 0.1 to 10 uM after 24 hrs by Annexin V/propidium iodide staining-based flow cytometric analysis. It is filed as functional.
For assay [22], the system named is Mus musculus. As to the kind of experiment: Antiobesity activity in C57BL/6J mouse model of diet-induced obesity assessed as reduction in ALT levels at 1 umol/kg, ip qd for 4 weeks. The class given is functional, organism-based.
Assay [23] concerns Mus musculus. Kind of assay: Antidiabetic activity in STZ-induced diabetic ICR mouse model assessed as fasting blood glucose level at 0.1 umol/kg, ip for 5 consecutive days by glucometery (reference value: 17.7 +/- 1.1 mM). The class given is functional.

Regarding H-FIAWLVKGRKKKKKK-NH2, in the assay with Mus musculus [1], the Activity was 11.9 mmol/L. In addition, the outcome with Mus musculus [2] was Active.
Take H-FIAWLVKGRKKK-NH2: the Activity in the assay on INS1 [3] is 29%; in the assay with Mus musculus [6], 12.7%; in the assay on Mus musculus [8], 14.9 mM; in the assay on Mus musculus [1], 10.8 mmol/L; in the assay with INS1 [15] it was 36%; with INS1 [16] it was 21%. The results for the Activity in the assay on INS1 [17], with Mus musculus [20] and with Mus musculus [23] were 17%, 15.03 mM and 16.5 mM, respectively. The outcome in the assay with Mus musculus [4], in the assay on Mus musculus [5], in the assay on Mus musculus [10] and in the assay with Mus musculus [19] was inactive. The outcome in the assay with Mus musculus [7], in the assay on INS1 [9], in the assay with Mus musculus [11], in the assay with Mus musculus [12], in the assay with Mus musculus [13] and in the assay with Mus musculus [14] was Active. The result in the assay on INS1 [18], in the assay with INS1 [21], in the assay on Mus musculus [22] and with Mus musculus [2] was Active.
